Experimental data as given in article PMC3115594 (Current Chemical Genomics, 2010).

Key:
[1] = molecular target: T1, GR (pBIND-GR, GR-LBD/GAL4 DBD) (Homo sapiens, UniProt P04150); format: cell-based; settings: for Induction: GR agonist, fold-induction, 384-well
T1 sequence (P04150 500-777): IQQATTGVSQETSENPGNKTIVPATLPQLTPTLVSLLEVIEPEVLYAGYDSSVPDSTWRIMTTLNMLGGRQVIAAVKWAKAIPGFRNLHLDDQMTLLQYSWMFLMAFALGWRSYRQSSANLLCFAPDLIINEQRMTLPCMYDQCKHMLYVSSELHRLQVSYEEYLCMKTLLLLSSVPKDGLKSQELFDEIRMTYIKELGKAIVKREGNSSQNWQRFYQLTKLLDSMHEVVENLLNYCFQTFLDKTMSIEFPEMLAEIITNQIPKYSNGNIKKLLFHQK

[2] = test system: constitutive Renilla reporter expression in HEK293 cells; test: Renilla luciferase internal control reporter; format: cell-based; settings: E2 titration, treated/untreated (Fig. 5)

Induction [1] | EC50 [1] [µM] | SMILES | Renilla reporter induction [2]
760 | – | C[C@@H]1C[C@H]2[C@@H]3CCC4=CC(=O)C=C[C@]4(C)[C@@]3(F)[C@@H](O)C[C@]2(C)[C@@]1(O)C(=O)CO [Dexamethasone, dexamethasone] | –
450 | – | C[C@]12CCC(=O)C=C1CC[C@@H]1[C@@H]2[C@@H](O)C[C@@]2(C)[C@H]1CC[C@]2(O)C(=O)CO [Hydrocortisone, hydrocortisone] | –
42 | 21 | C[C@]12CCC(=O)C=C1CC[C@@H]1[C@@H]2[C@@H](O)C[C@]2(C=O)[C@@H](C(=O)CO)CC[C@@H]12 [aldosterone] | –
– | – | C[C@]12CC[C@@H]3c4ccc(O)cc4CC[C@H]3[C@@H]1CC[C@@H]2O [17β-estradiol, 17β- estradiol] | around 1.0
